Experiment [1] addresses T1, PSMA-expressing C4-2 cells (Homo sapiens, UniProt Q04609).
T1 construct: PSMA-expressing C4-2 cells (ATCC, Cat. No. CRL-3314) were cultured in RPMI-1640; host or cells: C4-2 cells
Briefly: FACS binding assay (competition with 50 nM PSM-0183). The following applies: read-out: pIC50 [C4-2] CAT (converted). An outline of the steps:
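C4-2 cells were incubated 1 h at 4 °C with 50 nM AF488-labelled peptide PSM-0183 plus increasing test compound concentrations, then washed twice in ice-cold buffer. Median fluorescence in the AF488 channel was read by flow cytometry. IC50/pIC50 was derived by 4PL fitting of MFI versus concentration.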

Experiment [2] addresses T2, Fc-fusion protein of human PSMA (hPSMA-Fc) (Homo sapiens, UniProt Q04609).
T2 construct: purchased Acro Biosystems PSA-H5264
Briefly: Surface plasmon resonance assay (Biacore T200, single cycle kinetic). It counts as binding. The note with it: hPSMA-Fc, 25° C., read-out: pKD CAT (converted). An outline of the steps:
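hPSMA-Fc was captured (~1000 RU) on an Fc-binding-peptide CM5 chip, and compounds were run in single cycle kinetic mode at 25° C in HBST with 0.1% DMSO. Double-blank-corrected sensorgrams were fitted to a 1:1 Langmuir model to give KD, reported as pKD.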

Where [3] appears, read: pIC50 category of FACS binding, C4-2 cells.
Setting [4] is: pKD category for PSMA SPR activity assay.
[5] abbreviates: FACS binding, C4-2 cells, competition with 50 nM PSM-0183, category.
Where [6] appears, read: SPR, single cycle kinetic, category.
Setting [7] is: FACS binding, PSMA-expressing C4-2 cells, pIC50 category.

SMILES strings stand for the structures. Where two headings read alike, the source gives them in different places. Numbered stars: 1 amine (or outer) side, 2 acyl side, 3 side chain; on linkers, the order of the positions; unused ones are H or OH. Bridge positions count the residues as written; N and C are the ends. Square brackets hold non-standard residues; d marks the D form. Peptide text beside a SMILES is read from it. * marks the point of attachment. TtdsdLys(DOTA)NH2 = NC(=O)[C@@H](CCCCNC(=O)CN1CCN(CC(=O)O)CCN(CC(=O)O)CCN(CC(=O)O)CC1)NC(=O)CCC(=O)NCCCOCCOCCOCCCN*; Acetyl(1-DOTA-4-piperidyl) = O=C(O)CN1CCN(CC(=O)O)CCN(CC(=O)N2CCC(CC(=O)*)CC2)CCN(CC(=O)O)CC1; DOTA = O=C(O)CN1CCN(CC(=O)O)CCN(CC(=O)*)CCN(CC(=O)O)CC1; Lys(Me3) = C[N+](C)(C)CCCC[C@H](N)C(=O)O; Phe(4-Cl) = N[C@@H](Cc1ccc(Cl)cc1)C(=O)O; Phe(3-F) = N[C@@H](Cc1cccc(F)c1)C(=O)O; Arg(Me) = CNC(=N)NCCC[C@H](N)C(=O)O; X1 = O=C(CC1CCN([*:1])CC1)[*:2]; Cit = NC(=O)NCCC[C@H](N)C(=O)O; Lys(Me) = CNCCCC[C@H](N)C(=O)O; Tle = CC(C)(C)[C@H](N)C(=O)O; Orn = NCCC[C@H](N)C(=O)O; Aib = CC(C)(N)C(=O)O; CH2 = C([*:1])[*:2]

T1 sequence (Q04609 whole entry): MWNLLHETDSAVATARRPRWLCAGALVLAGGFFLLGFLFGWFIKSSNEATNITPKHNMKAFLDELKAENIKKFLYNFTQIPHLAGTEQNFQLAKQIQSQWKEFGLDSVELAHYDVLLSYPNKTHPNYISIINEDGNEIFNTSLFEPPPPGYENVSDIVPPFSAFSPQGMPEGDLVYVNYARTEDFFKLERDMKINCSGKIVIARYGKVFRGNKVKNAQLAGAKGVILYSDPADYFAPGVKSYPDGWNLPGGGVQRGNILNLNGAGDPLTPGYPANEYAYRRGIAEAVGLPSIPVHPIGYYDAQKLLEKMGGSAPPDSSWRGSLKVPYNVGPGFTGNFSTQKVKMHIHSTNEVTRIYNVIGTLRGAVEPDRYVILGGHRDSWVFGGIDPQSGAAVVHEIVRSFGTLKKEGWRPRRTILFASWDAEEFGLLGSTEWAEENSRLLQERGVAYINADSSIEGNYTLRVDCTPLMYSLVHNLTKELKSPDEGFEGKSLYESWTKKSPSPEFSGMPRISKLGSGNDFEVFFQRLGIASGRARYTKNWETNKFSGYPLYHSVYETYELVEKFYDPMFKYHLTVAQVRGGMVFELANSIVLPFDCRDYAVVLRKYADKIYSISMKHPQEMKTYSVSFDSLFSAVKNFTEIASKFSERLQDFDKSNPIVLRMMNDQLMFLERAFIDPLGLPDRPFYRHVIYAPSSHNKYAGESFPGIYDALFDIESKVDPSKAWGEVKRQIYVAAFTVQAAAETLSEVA
T2 sequence (Q04609 44-750 limits assumed): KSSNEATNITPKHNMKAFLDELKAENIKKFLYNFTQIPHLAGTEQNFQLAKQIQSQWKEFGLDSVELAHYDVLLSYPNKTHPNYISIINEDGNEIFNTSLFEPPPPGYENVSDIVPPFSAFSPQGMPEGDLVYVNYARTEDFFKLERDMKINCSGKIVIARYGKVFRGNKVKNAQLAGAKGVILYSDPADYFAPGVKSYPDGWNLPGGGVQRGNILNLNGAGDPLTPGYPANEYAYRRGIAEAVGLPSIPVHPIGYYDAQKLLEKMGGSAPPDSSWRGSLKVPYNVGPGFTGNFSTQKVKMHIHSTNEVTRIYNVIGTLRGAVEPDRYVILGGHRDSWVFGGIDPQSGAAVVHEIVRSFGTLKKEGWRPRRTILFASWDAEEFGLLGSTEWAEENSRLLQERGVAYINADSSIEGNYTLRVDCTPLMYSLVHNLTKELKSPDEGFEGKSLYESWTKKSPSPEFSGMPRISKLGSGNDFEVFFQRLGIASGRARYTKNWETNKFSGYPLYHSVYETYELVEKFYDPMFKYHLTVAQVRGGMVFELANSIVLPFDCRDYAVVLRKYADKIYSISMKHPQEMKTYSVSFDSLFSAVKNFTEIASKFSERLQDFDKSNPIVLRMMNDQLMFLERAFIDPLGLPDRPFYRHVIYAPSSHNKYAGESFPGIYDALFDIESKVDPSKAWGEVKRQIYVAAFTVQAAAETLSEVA

Take `CC(=O)N[C@H](C(=O)NC(C)(C)C(=O)N[C@@H](Cc1ccc(Cl)cc1)C(=O)N[C@H]1CSSC[C@@H](C(=O)N[C@H](C(=O)N[C@H](C(N)=O)[C@@H](C)O)C(C)(C)C)NC(=O)[C@H](CCC(=O)O)NC(=O)C(C)(C)NC(=O)[C@H](CCCNC(N)=O)NC(=O)[C@H](CCCCN)NC1=O)[C@@H](C)O` [PSM-0496, Ac-Thr-Aib-Pcf-[Cys-Lys-Cit-Aib-Glu-Cys]-Tle-Thr-NH2] (Ac-T[Aib][Phe(4-Cl)]CK[Cit][Aib]EC[Tle]T-NH2; disulfide 4-9): the IC50 in experiment [1] (setting [3]) was under 200 nM. Further, the Kd in experiment [2] (setting [4]) is 12.6 to 126 nM.
The corresponding values for `CNC(=N)NCCC[C@@H]1NC(=O)[C@H](CCCC[N+](C)(C)C)NC(=O)[C@@H](NC(=O)[C@H](Cc2ccc(Cl)cc2)NC(=O)C(C)(C)NC(=O)[C@@H](NC(=O)CC2CCN(C(=O)CN3CCN(CC(=O)O)CCN(CC(=O)O)CCN(CC(=O)O)CC3)CC2)[C@@H](C)O)CSSC[C@@H](C(=O)N[C@H](C(=O)N[C@H](C(N)=O)[C@@H](C)O)C(C)(C)C)NC(=O)[C@H](CC(N)=O)NC(=O)C(C)(C)NC1=O` [PSM-0483, DOTA-Cmp-Thr-Aib-Pcf-[Cys-KMe3-Arg(Me)-Aib-Asn-Cys]-Tle-Thr-NH2] ({DOTA}-[X1]T[Aib][Phe(4-Cl)]C[Lys(Me3)][Arg(Me)][Aib]NC[Tle]T-NH2; disulfide 5-10) are under 200 nM and 12.6 to 126 nM.
For `CC(=O)N[C@H](C(=O)NC(C)(C)C(=O)N[C@@H](Cc1ccc(Cl)cc1)C(=O)N[C@H]1CSSC[C@@H](C(=O)N[C@H](C(=O)N[C@H](C(=O)O)[C@@H](C)O)C(C)(C)C)NC(=O)[C@H](CC(N)=O)NC(=O)C(C)(C)NC(=O)[C@H](CCCNC(=N)N)NC(=O)[C@H](CCCCN)NC1=O)[C@@H](C)O` [PSM-0493, Ac-Thr-Aib-Pcf-[Cys-Lys-Arg-Aib-Asn-Cys]-Tle-Thr-OH] (Ac-T[Aib][Phe(4-Cl)]CKR[Aib]NC[Tle]T-OH; disulfide 4-9), the IC50 in experiment [1] (setting [3]) was under 200 nM. Moreover, the Kd in experiment [2] (setting [4]) is under 12.6 nM.
In the case of `C[C@@H](O)[C@H](NC(=O)[C@@H](NC(=O)[C@@H]1CSSC[C@H](NC(=O)[C@H](Cc2ccc(Cl)cc2)NC(=O)C(C)(C)NC(=O)[C@@H](NC(=O)CC2CCN(C(=O)CN3CCN(CC(=O)O)CCN(CC(=O)O)CCN(CC(=O)O)CC3)CC2)[C@@H](C)O)C(=O)N[C@@H](CCCCN)C(=O)N[C@@H](CCCN)C(=O)NC(C)(C)C(=O)N[C@@H](CC(N)=O)C(=O)N1)C(C)(C)C)C(N)=O` [PSM-0245, DOTA-Cmp-Thr-Aib-Pcf-[Cys-Lys-Orn-Aib-Asn-Cys]-Tle-Thr-NH2] ({DOTA}-[X1]T[Aib][Phe(4-Cl)]CK[Orn][Aib]NC[Tle]T-NH2; disulfide 5-10), the IC50 in experiment [1] (setting [5]) is under 200 nM. Besides, the Kd in experiment [2] (setting [6]) was under 12.6 nM.
For the compound `CC(=O)N[C@H](C(=O)NC(C)(C)C(=O)N[C@@H](Cc1ccccc1)C(=O)N[C@H]1CSSC[C@@H](C(=O)N[C@H](C(=O)N[C@H](C(N)=O)[C@@H](C)O)C(C)(C)C)NC(=O)[C@@H](CC(N)=O)NC(=O)C(C)(C)NC(=O)[C@H](CCCNC(=N)N)NC(=O)[C@H](CCCCN)NC1=O)[C@@H](C)O` [PSM-0402, Ac-Thr-Aib-Phe-[Cys-Lys-Arg-Aib-asn-Cys]-Tle-Thr-NH2] (Ac-T[Aib]FCKR[Aib][dN]C[Tle]T-NH2; disulfide 4-9), the IC50 in experiment [1] (setting [3]) was under 200 nM. In addition, the Kd in experiment [2] (setting [4]) was under 12.6 nM.
The corresponding values for `C[C@@H](O)[C@H](NC(=O)[C@@H](NC(=O)[C@@H]1CSSC[C@H](NC(=O)[C@H](Cc2ccc(Cl)cc2)NC(=O)C(C)(C)NC(=O)[C@@H](NC(=O)CC2CCN(C(=O)CN3CCN(CC(=O)O)CCN(CC(=O)O)CCN(CC(=O)O)CC3)CC2)[C@@H](C)O)C(=O)N[C@@H](CCCCN)C(=O)N[C@@H](CCCNC(=N)N)C(=O)NC(C)(C)C(=O)N[C@@H](CC(N)=O)C(=O)N1)C(C)(C)C)C(N)=O` [PSM-0445, DOTA-Cmp-Thr-Aib-Pcf-[Cys-Lys-Arg-Aib-Asn-Cys]-Tle-Thr-NH2] ({DOTA}-[X1]T[Aib][Phe(4-Cl)]CKR[Aib]NC[Tle]T-NH2; disulfide 5-10) are under 200 nM and under 12.6 nM.
The corresponding values for `CC(=O)N[C@H](C(=O)NC(C)(C)C(=O)N[C@@H](Cc1cccc(F)c1)C(=O)N[C@H]1CSSC[C@@H](C(=O)N[C@H](C(=O)N[C@H](C(N)=O)[C@@H](C)O)C(C)(C)C)NC(=O)[C@H](CC(N)=O)NC(=O)C(C)(C)NC(=O)[C@H](CCCNC(=N)N)NC(=O)[C@H](CCCCN)NC1=O)[C@@H](C)O` [PSM-0551, Ac-Thr-Aib-Mff-[Cys-Lys-Arg-Aib-Asn-Cys]-Tle-Thr-NH2] (Ac-T[Aib][Phe(3-F)]CKR[Aib]NC[Tle]T-NH2; disulfide 4-9) are under 200 nM and under 12.6 nM.
Turning to `CC(=O)N[C@H](C(=O)NC(C)(C)C(=O)N[C@@H](Cc1ccccc1)C(=O)N[C@H]1CSSC[C@@H](C(=O)N[C@H](C(=O)N[C@H](C(=O)N[C@@H](CC(=O)O)C(=O)NCCCOCCOCCOCCCNC(=O)CCC(=O)N[C@H](CCCCNC(=O)CN2CCN(CC(=O)O)CCN(CC(=O)O)CCN(CC(=O)O)CC2)C(N)=O)[C@@H](C)O)C(C)(C)C)NC(=O)[C@H](CC(N)=O)NC(=O)[C@H](C)NC(=O)[C@H](CCCNC(=N)N)NC(=O)[C@H](CCCCN)NC1=O)[C@@H](C)O` [PSM-0295, Ac-Thr-Aib-Phe-[Cys-Lys-Arg-Ala-Asn-Cys]-Tle-Thr-Asp-Ttds-lys(DOTA)-NH2] (Ac-T[Aib]FCKRANC[Tle]TD-{TtdsdLys(DOTA)NH2}; disulfide 4-9), the IC50 in experiment [1] (setting [7]) is under 200 nM. Besides, the Kd in experiment [2] (PSMA SPR assay, pKD category) is under 12.6 nM.
The corresponding values for `CC(=O)N[C@H](C(=O)NC(C)(C)C(=O)N[C@@H](Cc1ccc(Cl)cc1)C(=O)N[C@H]1CSSC[C@@H](C(=O)N[C@H](C(=O)N[C@H](C(=O)N[C@H](CCCCNC(=O)CC2CCN(C(=O)CN3CCN(CC(=O)O)CCN(CC(=O)O)CCN(CC(=O)O)CC3)CC2)C(N)=O)[C@@H](C)O)C(C)(C)C)NC(=O)[C@H](CC(N)=O)NC(=O)C(C)(C)NC(=O)[C@H](CCCNC(N)=O)NC(=O)[C@H](CCCCN)NC1=O)[C@@H](C)O` [PSM-0322, Ac-Thr-Aib-Pcf-[Cys-Lys-Cit-Aib-Asn-Cys]-Tle-Thr-lys (DOTA-Cmp)-NH2] (Ac-T[Aib][Phe(4-Cl)]CK[Cit][Aib]NC[Tle]T[dK](Acetyl(1-DOTA-4-piperidyl))-NH2; disulfide 4-9) are under 200 nM and 12.6 to 126 nM.
The corresponding values for `CC(=O)N[C@@H](Cc1ccc(Cl)cc1)C(=O)N[C@H]1CSSC[C@@H](C(=O)N[C@H](C(N)=O)C(C)(C)C)NC(=O)[C@H](CC(N)=O)NC(=O)C(C)(C)NC(=O)[C@H](CCCNC(=N)N)NC(=O)[C@H](CCCCN)NC1=O` [PSM-0281, Ac-Pcf-[Cys-Lys-Arg-Aib-Asn-Cys]-Tle-NH2] (Ac-[Phe(4-Cl)]CKR[Aib]NC[Tle]-NH2; disulfide 2-7) are over 3160 nM and over 501 nM.
On to `CC(=O)N[C@@H](C)C(=O)N[C@@H](Cc1ccccc1)C(=O)N[C@H]1CSSC[C@@H](C(=O)N[C@@H](CC(C)C)C(=O)N[C@H](C(=O)N[C@@H](CC(=O)O)C(=O)NCCCOCCOCCOCCCNC(=O)CCC(=O)N[C@H](CCCCNC(=O)CN2CCN(CC(=O)O)CCN(CC(=O)O)CCN(CC(=O)O)CC2)C(N)=O)[C@@H](C)O)NC(=O)[C@H](CC(N)=O)NC(=O)[C@H](C)NC(=O)[C@H](CCCNC(=N)N)NC(=O)[C@H](CCCCN)NC1=O` [PSM-0299, Ac-Ala-Phe-[Cys-Lys-Arg-Ala-Asn-Cys]-Leu-Thr-Asp-Ttds-lys(DOTA)-NH2] (Ac-AFCKRANCLTD-{TtdsdLys(DOTA)NH2}; disulfide 3-8), for which, in experiment [1] (setting [7]), the IC50 was 1260 to 3160 nM. Besides, in experiment [2] (PSMA SPR assay, pKD category), the Kd is 12.6 to 126 nM.
For the compound `CC(=O)N[C@H](C(=O)NC(C)(C)C(=O)N[C@@H](Cc1ccccc1)C(=O)N[C@H]1CSSC[C@@H](C(=O)N[C@H](C(=O)N[C@H](C(=O)N[C@@H](CC(=O)O)C(N)=O)[C@@H](C)O)C(C)(C)C)NC(=O)[C@H](CC(N)=O)NC(=O)C(C)(C)NC(=O)[C@H](CCCNC(=N)N)NC(=O)[C@H](CCC(N)=O)NC1=O)[C@@H](C)O` [PSM-0210, Ac-Thr-Aib-Phe-[Cys-Gln-Arg-Aib-Asn-Cys]-Tle-Thr-Asp-NH2] (Ac-T[Aib]FCQR[Aib]NC[Tle]TD-NH2; disulfide 4-9), in experiment [1] (setting [5]), the IC50 was under 200 nM. The Kd in experiment [2] (setting [6]) was 12.6 to 126 nM.
With `CNCCCC[C@@H]1NC(=O)[C@@H](NC(=O)[C@H](Cc2ccc(Cl)cc2)NC(=O)C(C)(C)NC(=O)[C@@H](NC(=O)CC2CCN(C(=O)CN3CCN(CC(=O)O)CCN(CC(=O)O)CCN(CC(=O)O)CC3)CC2)[C@@H](C)O)CSCSC[C@@H](C(=O)N[C@H](C(N)=O)C(C)(C)C)NC(=O)[C@H](CC(N)=O)NC(=O)C(C)(C)NC(=O)[C@H](CCCNC(=N)NC)NC1=O` [PSM-0420, DOTA-Cmp-Thr-Aib-Pcf-[Smc-Lys(Me)-Arg(Me)-Aib-Asn-Cys]-Tle-NH2] ({DOTA}-[X1]T[Aib][Phe(4-Cl)]C[Lys(Me)][Arg(Me)][Aib]NC[Tle]-NH2; linker 5-10 via CH2), the IC50 in experiment [1] (setting [3]) is under 200 nM. The Kd in experiment [2] (setting [4]) is under 12.6 nM.
